Where two headings read alike, the source gives them in different places. Marks after values point to notes of the source that are not given here.
Experiments:
C. albicans ATCC 64124 = test: MIC determination, strain B; type: cell-based, Candida albicans; settings: Candida albicans, ATCC64124
Protocol: (§1) The antifungal activity of our new azole compounds 1-9 and 24-41 was first evaluated against a panel of seven Candida albicans strains (A-G), three non-albicans Candida strains […], and three Aspergillus strains (K-M) in a concentration range of 0.03-31.2 μg/mL (Table 1). […] For all of our azole derivatives we report their MIC-0 values against C. albicans ATCC 10231 (strain A) and all Aspergillus strains (K-M), which correspond to complete growth inhibition of these fungi. […] The commercially available antifungals AmB, FLC, ITC, POS, and VOR were used as reference drugs for comparison. The MIC values presented for these five control drugs were either tested herein or correspond to our previously published data^5, 16 as indicated in Table 1.
(§2) Antifungal activity in the absence or presence of serum. The antifungal activity of the newly prepared alkylated piperazine/morpholine-azole hybrids 16-28, of intermediate 14 that we used to verify that only final compounds exert antifungal activity, as well as that of alkylated piperazine/morpholine derivatives 1-10 were first evaluated against a panel of seven C. albicans (ATCC 10231 (A), ATCC 64124(R) (B), ATCC MYA-2876(S) (C), ATCC 90819(R) (D), ATCC MYA-2310(S) (E), ATCC MYA-1237(R) (F), and ATCC MYA-1003(R) (G)), three non-albicans Candida (C. glabrata ATCC 2001 (H), C. krusei ATCC 6258 (I), and C. parapsilosis ATCC 22019 (J)), and three Aspergillus (A. flavus ATCC MYA-3631 (K), A. nidulans ATCC 38163 (L), and A. terreus ATCC MYA-3633 (M)) strains using a concentration range of 0.03-31.3 μg/mL (Table 2).
(§3) Commercially available antifungal agents such as AmB, CAS, FLC, and VOR were used as positive controls for comparison. […] It is important to note that all comparisons to follow will be done by using the MIC values reported in μg/mL as the data were collected that way. However, we also present in parentheses in Table 2 the corresponding values in micromolar.
(§4) We used the commercially available antifungal agents such as AmB, caspofungin (CAS), FLC, and VOR as positive controls for comparison. For derivatives 5-16 as well as the reference drugs AmB and CAS, we reported MIC-0 values, which correspond to no visible growth. […] In this manuscript, we performed all activity comparisons by using the MIC values reported in μg/mL (Note: the corresponding MIC values are also provided in μM into parentheses in Tables 1, 2, S1, and S2).

[1] = tested on: C. albicans ATCC 90819(R); test: MIC determination, strain D; type: cell-based, Candida albicans; settings: Candida albicans, ATCC90819
Protocol: as §1, §2, §3, §4

[2] = tested on: Candida parapsilosis ATCC 22019; test: MIC determination, strain J; type: cell-based; settings: Lodderomyces parapsilosis
Protocol: as §1, §2, §3, §4

[3] = tested on: Aspergillus nidulans ATCC 38163; test: MIC determination, strain L; type: cell-based
Text: For all of our azole derivatives we report their MIC-0 values against C. albicans ATCC 10231 (strain A) and all Aspergillus strains (K-M), which correspond to complete growth inhibition of these fungi. […] The MIC values presented for these five control drugs were either tested herein or correspond to our previously published data^5, 16 as indicated in Table 1.
Antifungal activity in the absence or presence of serum.
It is important to note that all comparisons to follow will be done by using the MIC values reported in μg/mL as the data were collected that way. However, we also present in parentheses in Table 2 the corresponding values in micromolar.
In this manuscript, we performed all activity comparisons by using the MIC values reported in μg/mL (Note: the corresponding MIC values are also provided in μM into parentheses in Tables 1, 2, S1, and S2).

[4] = tested on: C. albicans ATCC 64124 (strain B) biofilms; test: Antibiofilm activity by XTT reduction assay; type: cell-based, Candida albicans; settings: Table 4, Ex.2
Protocol: Antibiofilm activity of synthetic compounds. Biofilms are complex functional communities of one or more species of microorganisms that are encased in extracellular polymeric substances and attached to both a solid surface and to each other. Being complex matrices, antifungal agents have difficulty reaching the pathogens embedded in these difficult-to-treat networks. The antibiofilm activity of compounds 7, 9, 20, 22, 25, and 26, as well as that of VOR were evaluated against biofilms of C. albicans ATCC 64124 (strain B) by XTT reduction assay (Table 4).

[5] = tested on: C. albicans ATCC 10231 (strain A); test: Time-kill assay, strain A; type: cell-based, Candida albicans; settings: Ex.2 series, compound at 4×MIC, VOR control
[6] = tested on: C. albicans ATCC MYA-2876(S); settings: Table 1; strain C; control azoles; previously reported (refs 5, 16); cited from earlier work
[7] = tested on: C. albicans ATCC 90819(R); settings: Table 1; strain D; control azoles; previously reported (refs 5, 16); cited from earlier work
[8] = tested on: C. albicans ATCC MYA-2310(S); settings: Table 1; strain E; control azoles; previously reported (refs 5, 16); cited from earlier work
[9] = tested on: C. albicans ATCC MYA-1237(R); settings: Table 1; strain F; control azoles; previously reported (refs 5, 16); cited from earlier work
[10] = tested on: Candida glabrata ATCC 2001; settings: Table 1; strain H; control azoles; previously reported (refs 5, 16); cited from earlier work
[11] = tested on: Aspergillus nidulans ATCC 38163; settings: Table 1; strain L; control azoles; previously reported (refs 5, 16); cited from earlier work
[12] = read-out: MIC (MIC-2), in parentheses

Q: Which results are given for C[C@@H](c1ncncc1F)[C@](O)(Cn1cncn1)c1ccc(F)cc1F [VOR, voriconazole]?
A: MIC (C. albicans ATCC 64124; read-out: MIC (MIC-2)): 3.9 µg/mL; MIC (C. albicans ATCC 64124; [12]): 11.2 µM; MIC ([1]; read-out: MIC (MIC-2)): 1.95 µg/mL; MIC [1, 12]: 5.6 µM; MIC ([2]; ATCC22019, read-out: MIC, Candida parapsilosis ATCC 22019 (J) (+10% FBS), Table 3, Ex.2 compounds, +10% FBS): 0.015 µg/mL; MIC ([2]; ATCC22019, Table 3, Ex.2 compounds, no FBS, read-out: MIC, Candida parapsilosis ATCC 22019 (J) (no FBS)): 0.015 µg/mL; MIC ([2]; ATCC22019, read-out: MIC (MIC-2)): < 0.03 µg/mL; MIC ([2]; ATCC22019, read-out: MIC (MIC-2), in parentheses): < 0.06 µM; MIC ([3]; ATCC38163, Table 2, strain L, all compounds and controls, read-out: MIC (MIC-0)): 0.12 µg/mL; MIC ([3]; ATCC38163, Table 2, strain L, all compounds and controls, read-out: MIC (MIC-0), in parentheses): 0.34 µM; MIC ([3]; ATCC38163, Table 3, Ex.2 compounds, no FBS, read-out: MIC, Aspergillus nidulans ATCC 38163 (L) (no FBS)): 0.12 µg/mL; MIC ([3]; ATCC38163, read-out: MIC, Aspergillus nidulans ATCC 38163 (L) (+10% FBS), Table 3, Ex.2 compounds, +10% FBS): 0.12 µg/mL; SMIC50 ([4]; reduces metabolic activity of biofilms by 50%): 62.5 µg/mL; SMIC80 ([4]; reduces metabolic activity of biofilms by 80%): 62.5 µg/mL; effect in time-kill assay [5]: fungistatic; MIC (MIC-2) [6]: 1.95^c μg/mL; MIC (MIC-2) [7]: 1.95^c μg/mL; MIC (MIC-2) [8]: 0.975^c μg/mL; MIC (MIC-2) [9]: 7.8^c μg/mL; MIC (MIC-2) [10]: 0.06^c μg/mL; MIC (MIC-2) [11]: 0.03^c μg/mL
